Data as given in article PMC3057096 (Bioorganic & medicinal chemistry, 2010).

What was measured:
P. falciparum (D6) = format: cell-based; details: Plasmodium falciparum, D6, read-out: P. falciparum (D6) IC50
[1] = tested on: P. berghei (sensitive strain); assay: In vivo blood-schizontocidal antimalarial activity, rodent malaria model; parameters: species or system mice; details: for P. berghei: mice cured: dose of 25 mg/kg
P. falciparum (W2) = format: cell-based; details: Plasmodium falciparum, W2, read-out: P. falciparum (W2) IC50
Staphylococcus aureus = assay: In vitro antibacterial susceptibility testing; format: cell-based; details: read-out: S. aureus IC50, 50% growth inhibition
β-hematin (BH) formation = assay: Inhibition of β-hematin; format: biochemical; details: read-out: BH inhibition IC50
[2] = rodents; cited from earlier work
[3] = cited from earlier work
[4] = tested on: methicillin-resistant Staphylococcus aureus ATCC 43300 (MRSA); assay: In vitro antibacterial susceptibility testing; format: cell-based; details: ATCC43300|MRSA, read-out: MRSA MIC, NA = no activity at highest test concentration of 20 μg/mL

Structure (SMILES): COc1cc(NC(C)CCCNC(=O)N[C@H](CCCCN)C(=O)NCCCC(C)Nc2cc(OC)cc3cccnc23)c2ncccc2c1.Cl (stereo partly drawn) [Compound 38, N-{4-[(6-methoxyquinolin-8-yl)amino]pentyl}-N^2-({4-[(6-methoxyquinolin-8-yl)-amino]pentyl}carbamoyl)-L-lysinamide·3HCl]
- IC50 (P. falciparum (D6)): 3.6 mg/L

Structure (SMILES): COc1cc(NC(C)CCCNC(=O)CC[C@H](N)C(=O)NCCCC(C)Nc2cc(OC)cc3ccc(C(C)(C)C)nc23)c2nc(C(C)(C)C)ccc2c1.Cl (stereo partly drawn) [Compound 63, N^1,N^5-Bis{4-[(2-tert-butyl-6-methoxyquinolin-8-yl)amino]pentyl}-L-glutamamide·3HCl]
- P. berghei in vivo activity class ([1]; 100 mg/kg/day × 4, oral): Inactive

Structure (SMILES): COc1cc(NC(C)CCCNC(=O)NC(=O)NCCCC(C)Nc2cc(OC)cc3cccnc23)c2ncccc2c1.Cl.Cl (centres unmarked) [Compound 74, N,N′-Bis{4-[(6-methoxyquinolin-8-yl)amino]pentyl}dicarbonimidic diamide·2HCl]
- P. berghei in vivo activity class ([1]; 100 mg/kg/day × 4, oral): Inactive

Structure (SMILES): COc1cc(NC(C)CCCNC(=O)C[C@H](N)C(=O)NCCCC(C)Nc2cc(OC)cc3ccc(C(C)(C)C)nc23)c2nc(C(C)(C)C)ccc2c1.Cl (stereo partly drawn) [Compound 62, N^1,N^4-Bis{4-[(2-tert-butyl-6-methoxyquinolin-8-yl)amino]pentyl}-L-aspartamide·3HCl]
- IC50 (P. falciparum (W2)): 3.2 mg/L
- P. berghei in vivo activity class ([1]; 100 mg/kg/day × 4, oral): Inactive

Structure (SMILES): COc1cc(NC(C)CCCNC(=O)N[C@H](CCCCN)C(=O)NCCCC(C)Nc2cc(OC)cc3ccc(C(C)(C)C)nc23)c2nc(C(C)(C)C)ccc2c1.Cl (stereo partly drawn) [Compound 43, N-{4-[(2-tert-butyl-6-methoxyquinolin-8-yl)amino]pentyl}-N^2-({4-[(2-tert-butyl-6methoxyquinolin-8-yl)amino]pentyl}carbamoyl)-L-lysinamide·3HCl]
- IC50 (Staphylococcus aureus): 1.78 to 2.73 mg/L
- IC50 (P. falciparum (D6)): 1.6 mg/L
- P. berghei in vivo activity class ([1]; 100 mg/kg/day × 4, oral): Suppressive

Structure (SMILES): COc1cc(NC(C)CCCN)c2ncccc2c1 (centres unmarked) [PQ, primaquine]
- IC50 (β-hematin (BH) formation): > 1000 µM
- time at which two major metabolites start appearing in the blood [2]: about 30 min
- half life [3]: 4 to 6 h

Structure (SMILES): COc1cc(NC(C)CCCNC(=S)NCCCC(C)Nc2cc(OC)cc3cccnc23)c2ncccc2c1.Cl.Cl (centres unmarked) [Compound 67, 1,3-Bis{4-[(6-methoxyquinolin-8-yl)amino]pentyl}thiourea·2HCl]
- MIC [4]: 5 to 20 mg/L

Structure (SMILES): COc1cc(NC(C)CCCNCCNCCNCCCC(C)Nc2cc(OC)cc3cccnc23)c2ncccc2c1.Cl.Cl (centres unmarked) [Compound 79, N^1,N^1′-(iminodiethane-2,1-diyl)bis[N^4-(6-methoxyquinolin-8-yl)pentane-1,4-diamine]·2HCl]
- P. berghei in vivo activity class ([1]; 10 mg/kg/day × 4, oral): Suppressive
- P. berghei in vivo activity class ([1]; 25 mg/kg/day × 4, oral): Curative
- P. berghei in vivo activity class ([1]; 50 mg/kg/day × 4, oral): Curative
- P. berghei in vivo activity class ([1]; 100 mg/kg/day × 4, oral): Curative
- P. berghei: mice cured [1]: 100%

Structure (SMILES): COc1cc(NC(C)CCCNC(=O)N[C@@H](CCCN)C(=O)NCCCC(C)Nc2cc(OC)cc3cccnc23)c2ncccc2c1.Cl (stereo partly drawn) [Compound 37, N-{4-[(6-methoxyquinolin-8-yl)amino]pentyl}-N^2-({4-[(6-methoxyquinolin-8-yl)-amino]pentyl}carbamoyl)-D-ornithinamide·3HCl]
- P. berghei in vivo activity class ([1]; 100 mg/kg/day × 4, oral): Inactive

Structure (SMILES): COc1cc(NC(C)CCCNC(=O)CC[C@H](N)C(=O)NCCCC(C)Nc2cc(OC)cc3cccnc23)c2ncccc2c1.Cl (stereo partly drawn) [Compound 61, N^1,N^5-Bis{4-[(6-methoxyquinolin-8-yl)amino]pentyl}-L-glutamamide·3HCl]
- IC50 (P. falciparum (W2)): 2.2 mg/L
- IC50 (P. falciparum (D6)): 2.7 mg/L
- P. berghei in vivo activity class ([1]; 10 mg/kg/day × 4, oral): Suppressive
- P. berghei in vivo activity class ([1]; 25 mg/kg/day × 4, oral): Curative
- P. berghei in vivo activity class ([1]; 50 mg/kg/day × 4, oral): Curative
- P. berghei in vivo activity class ([1]; 100 mg/kg/day × 4, oral): Curative
- P. berghei: mice cured [1]: 100%

Structure (SMILES): COc1cc(NC(C)CCCNC(=O)NCCCC(C)Nc2cc(OC)cc3cccnc23)c2ncccc2c1.Cl.Cl (centres unmarked) [Compound 66, 1,3-Bis{4-[(6-methoxyquinolin-8-yl)amino]pentyl}urea·2HCl]
- P. berghei in vivo activity class ([1]; 100 mg/kg/day × 4, oral): Inactive

Structure (SMILES): COc1cc(NC(C)CCCNC(=O)C[C@@H](N)C(=O)NCCCC(C)Nc2cc(OC)cc3cccnc23)c2ncccc2c1.Cl (stereo partly drawn) [Compound 64, N^1,N^4-Bis{4-[(6-methoxyquinolin-8-yl)amino]pentyl}-D-aspartamide·3HCl]
- IC50 (P. falciparum (W2)): 3.6 mg/L

Structure (SMILES): COc1cc(NC(C)CCCNCOC(=O)NCCCC(C)Nc2cc(OC)cc3cccnc23)c2ncccc2c1.Cl.Cl (centres unmarked) [Compound 76, ({4-[(6-Methoxyquinolin-8-yl)amino]pentyl}amino)methyl{4-[(6-methoxy-quinolin-8-yl)amino]pentyl}carbamate·2HCl]
- P. berghei in vivo activity class ([1]; 100 mg/kg/day × 4, oral): Suppressive

Structure (SMILES): COc1cc(NC(C)CCCNC(=O)N[C@@H](CCCN)C(=O)NCCCC(C)Nc2cc(OC)cc3ccc(C(C)(C)C)nc23)c2nc(C(C)(C)C)ccc2c1.Cl (stereo partly drawn) [Compound 42, N-{4-[(2-tert-butyl-6-methoxyquinolin-8-yl)amino]pentyl}-N^2-({4-[(2-tert-butyl-6methoxyquinolin-8-yl)amino]pentyl}carbamoyl)-D-ornithinamide·3HCl]
- IC50 (P. falciparum (W2)): 3.2 mg/L

Structure (SMILES): COc1cc(NC(C)CCCNC(=O)c2cncc(C(=O)NCCCC(C)Nc3cc(OC)cc4ccc(C(C)(C)C)nc34)c2)c2nc(C(C)(C)C)ccc2c1.Cl (centres unmarked) [Compound 85, N,N′-Bis{4-[(2-tert-butyl-6-methoxyquinolin-8-yl)amino]pentyl}pyridine-3,5-dicarboxamide·3HCl]
- IC50 (P. falciparum (W2)): 1.8 mg/L
- IC50 (P. falciparum (D6)): 2.7 mg/L

Structure (SMILES): COc1cc(NC(C)CCCNC(=O)N[C@@H](CCCNC(=N)N)C(=O)NCCCC(C)Nc2cc(OC)cc3cccnc23)c2ncccc2c1.Cl (stereo partly drawn) [Compound 36, N-{4-[(6-methoxyquinolin-8-yl)amino]pentyl}-N^2-({4-[(6-methoxyquinolin-8-yl)-amino]pentyl}carbamoyl)-D-argininamide·3HCl]
- IC50 (P. falciparum (W2)): 1.8 mg/L
- IC50 (P. falciparum (D6)): 3.2 mg/L
- P. berghei in vivo activity class ([1]; 50 mg/kg/day × 4, oral): Inactive
- P. berghei in vivo activity class ([1]; 100 mg/kg/day × 4, oral): Curative

Structure (SMILES): COc1cc(NC(C)CCCNC(=O)NCCCC(C)Nc2cc(OC)cc3ccc(C(C)(C)C)nc23)c2nc(C(C)(C)C)ccc2c1.Cl.Cl (centres unmarked) [Compound 68, 1,3-Bis{4-[(2-tert-butyl-6-methoxyquinolin-8-yl)amino]pentyl}urea·2HCl]
- IC50 (P. falciparum (W2)): 3.7 mg/L
- P. berghei in vivo activity class ([1]; 100 mg/kg/day × 4, oral): Inactive

Structure (SMILES): CCCCCOc1c(OC)cc(NC(C)CCCNC(=S)NCCCC(C)Nc2cc(OC)c(OCCCCC)c3c(CC)ccnc23)c2nccc(CC)c12.Cl.Cl (centres unmarked) [Compound 71, 1,3-Bis{4-[4-ethyl-6-methoxy-5-(pentyloxy)quinolin-8-ylamino]pentyl}-thiourea·2HCl]
- MIC [4]: 5 to 20 mg/L
